Measured values from paper PMC9243654 (Frontiers in Nutrition, 2022).
Read-outs that look alike come from different tables or passages of the source. Each block holds one compound with its values, some of them ahead of it.

Legend:
[1] = in vitro; settings: for PAMPA-BBB log Pe (cm s−1): pH 7.4
Protocol: The PAMPA-BBB assay was conducted according to the methodology followed by Di et al., with some modifications as described below ([15]). First, the BBB solution was prepared by dissolving 8 mg of PBL and 4 mg of cholesterol in 600 μl of n-dodecane. The initial donor solution was prepared by mixing 1 ml of extract (10 mg ml^−1 in EtOH) with 1 ml of buffer (PBS, pH = 7.4, 10 mM). The filter membrane of the donor plate was carefully coated with 5 μl of BBB solution. The acceptor plate was filled with 350 μl of buffer, and the donor plate was carefully assembled over the acceptor plate like a “sandwich.” Finally, the donor plate was filled with 350 μl of donor solution, covered, and incubated for 4 h at 37°C in the dark. After incubation time, 300 μl of the solution was taken from both plates, transferred to separate vials, and dried in the SpeedVac system at 40°C and 13 mbar pressure. Dried acceptor and donor solution were dissolved in 50 μl of pure EtOH before subjecting to UHPLC-Q-TOF-MS analysis. Permeability across in vitro BBB of the bioactive compound was measured according to Equation (1) ([25]), with some modifications in concentration rates.
(1) Pe=-ln[1-CA(t)/Ce]/A^*(1/VD+1/VA)^*t
Cequilibrium was calculated according to the following equation ([2]):
(2) Cequilibrium=[CD(t)*VD+CA(t)*VA]/(VD+VA)

[2] = ref PubChem database, cited from earlier work
[3] = PAMPA, pH 7.4, PAMPA-BBB log Pe (cm s−1), compound within RSFE extract, 4 h, 37°C, PBS pH 7.4
[4] = compounds of RSFE extract, octanol-water partition coefficient
[5] = PAMPA, pH 7.4, PAMPA-BBB log Pe (cm s−1), compound within KD extract, 4 h, 37°C, PBS pH 7.4
[6] = PAMPA, pH 7.4, PAMPA-BBB log Pe, compound within LPLE (Nothofagus pumilio, lenga PLE extract), N.D = not detected in acceptor
[7] = compound within LPLE (Nothofagus pumilio, lenga PLE extract), classes based on Könczöl et al.
[8] = compounds identified in LPLE extract
[9] = compound within LPLE (Nothofagus pumilio, lenga PLE extract), N.D = not detected in acceptor

Compound: COc1ccc(-c2cc(=O)c3c(O)c(O)c(OC)cc3o2)cc1 [Ladanein]
Papp at 4 h [1, 3]: 141 ×10⁻⁶ cm/s
Cross BBB potential ([1]; compound within RSFE extract): +++ (log Pe > −4.5)
Log P [2, 4]: 2.0

Cross BBB potential ([1]; compound within KD extract): -
Compound: O=c1c(O[C@@H]2O[C@H](CO)[C@@H](O)[C@H](O)[C@H]2O)c(-c2ccc(O)cc2)oc2cc(O)cc(O)c12 [Kaempferol 3-O-β-D-glucoside]
Log P ([2]; compounds of KD extract): 2.37

Compound: COc1cc(C(=O)O)ccc1O [Vanillic acid]
Papp at 4 h ([1]; PAMPA, pH 7.4, PAMPA-BBB log Pe (cm s−1), compound within ASFE extract, 4 h, 37°C, PBS pH 7.4): 2.14 ×10⁻⁶ cm/s
Papp at 4 h [1, 5]: 55 ×10⁻⁶ cm/s
Papp at 4 h [1, 6]: 1.35 ×10⁻⁶ cm/s
Cross BBB potential ([1]; compound within ASFE extract): + (log Pe > −6.5)
Cross BBB potential ([1]; compound within KD extract): +++ (log Pe > −4.5)
Cross BBB potential [1, 7]: + (log Pe > −6.5)
Log P [2, 8]: 1.4
Log P ([2]; compounds of ASFE extract): 1.4
Log P ([2]; compounds of KD extract): 1.4

Compound: O=Cc1ccc(O)c(O)c1 [Protocatechuic aldehyde]
PAMPA-BBB log Pe (cm s−1) ([1]; PAMPA): −5.75 cm s−1
PAMPA-BBB log Pe [1, 9]: −5.13 cm s−1
Log P [2, 8]: 1.1
Log P ([2]; compounds of ASFE extract): 1.1

Compound: CC(=O)O[C@H]1C[C@@H](O)[C@]2(C=O)[C@H]3CC[C@]4(C)[C@@H](c5ccc(=O)oc5)CC[C@]4(O)[C@@H]3CC[C@]2(O)C1 [Bersaldegenin-3-acetate]
Cross BBB potential ([1]; compound within KD extract): -
Log P ([2]; compounds of KD extract): 1.3

Cross BBB potential ([1]; compound within ASFE extract): -
Cross BBB potential [1, 7]: -
Compound: O=C(/C=C/c1ccc(O)cc1)O[C@@H](C(=O)O)[C@@H](O)C(=O)O [Coutaric acid]
Log P [2, 8]: 0.4
Log P ([2]; compounds of ASFE extract): 0.4

Cross BBB potential ([1]; compound within ASFE extract): -
Compound: COc1cc(/C=C/C=O)cc(OC)c1O [Sinapaldehyde]
Log P [2, 8]: 1.4
Log P ([2]; compounds of ASFE extract): 1.4

Compound: O=c1c(O)c(-c2ccc(O)c(O)c2)oc2cc(O)cc(O)c12 [Quercetin, reference compound]
Papp at 4 h ([1]; PAMPA, pH 7.4, LogPe, permeability of BBB to quercetin, present study): 0.0955 ×10⁻⁶ cm/s
Papp at 4 h [1, 6]: 0.0245 ×10⁻⁶ cm/s
Log P [2, 8]: 1.5
Log P ([2]; compounds of ASFE extract): 1.5
Log P ([2]; compounds of KD extract): 1.5

Cross BBB potential ([1]; PAMPA): ++
Papp at 4 h ([1]; PAMPA, pH 7.4, PAMPA-BBB log Pe (cm s−1)): 6.03 ×10⁻⁶ cm/s
Papp at 4 h [1, 6]: 8.51 ×10⁻⁶ cm/s
Compound: C[C@H]1[C@H](C)CC[C@]2(C(=O)O)CC[C@]3(C)C(=CC[C@@H]4[C@@]5(C)C[C@@H](O)[C@H](O)C(C)(C)[C@@H]5CC[C@]43C)[C@H]12 [Corosolic acid]
Log P [2, 8]: 6.4

Compound: C[C@@]12O[C@H]3C[C@@H](O1)[C@]1(C=O)[C@H]4[C@H](O)C[C@]5(C)[C@@H](c6ccc(=O)oc6)CC[C@]5(O)[C@@H]4CC[C@@]1(C3)O2 [Bryophyllin A]
Cross BBB potential ([1]; compound within KD extract): -
Log P ([2]; compounds of KD extract): 0.6

Compound: O=C(O)CCCCCCCCCCCCCCC(=O)O [Hexadecanedioic acid]
Cross BBB potential ([1]; compound within ASFE extract): -
Cross BBB potential [1, 7]: -
Log P [2, 8]: 5.4
Log P ([2]; compounds of ASFE extract): 5.4

Cross BBB potential ([1]; PAMPA): +++
PAMPA-BBB log Pe (cm s−1) ([1]; PAMPA, 4 h): −4.41 cm s−1
Compound: CC(C)c1cc2c(c(O)c1O)[C@@]13CCCC(C)(C)[C@@H]1[C@H](OC3=O)C2=O [Galdosol]
Log P [2, 4]: 4

Cross BBB potential ([1]; PAMPA): ++
PAMPA-BBB log Pe (cm s−1) ([1]; PAMPA, 4 h): −4.51 cm s−1
Compound: CC(=O)OC(C)(C)[C@@H]1CC[C@@]2(C)CO[C@]3(C)C=CO[C@]23C1 [Phytuberin]
Log P ([2]; compounds of T33 extract): 2.3

Cross BBB potential ([1]; PAMPA): ++
PAMPA-BBB log Pe [1, 9]: −4.74 cm s−1
Compound: CC1(C)C[C@@H]2C3=CC[C@@H]4[C@@]5(C)CC[C@H](O)[C@@](C)(C=O)C5CC[C@@]4(C)[C@]3(C)CC[C@@]2(C(=O)O)C[C@@H]1O (stereo partly shown) [Lucyin A]
Log P [2, 8]: 5.3
Log P ([2]; compounds of ASFE extract): 5.3

Cross BBB potential ([1]; PAMPA): +++
PAMPA-BBB log Pe (cm s−1) ([1]; PAMPA, 4 h): −4.36 cm s−1
Compound: COc1cc2oc(-c3ccc(O)cc3)cc(=O)c2c(O)c1OC [Crisimaritin]
Log P [2, 4]: 2.0

Cross BBB potential ([1]; PAMPA): +++
PAMPA-BBB log Pe (cm s−1) ([1]; PAMPA, 4 h): −3.96 cm s−1
Compound: Methydihydrojasmonic acid
Log P [2, 4]: 1.6

Compound: COc1c(O)cc2oc(-c3ccc(O)c(O)c3)cc(=O)c2c1O [Eupafolin]
Papp at 4 h [1, 5]: 339 ×10⁻⁶ cm/s
Cross BBB potential ([1]; compound within KD extract): +++ (log Pe > −4.5)
Log P ([2]; compounds of KD extract): 1.4

Compound: COc1cc(/C=C/C=O)ccc1O [Coniferaldehyde]
PAMPA-BBB log Pe (cm s−1) ([1]; PAMPA): −4.24 cm s−1
PAMPA-BBB log Pe [1, 9]: −4.65 cm s−1
Log P [2, 8]: 1.5
Log P ([2]; compounds of ASFE extract): 1.5

Compound: COc1cc(-c2oc3cc(O)cc(O)c3c(=O)c2O[C@@H]2O[C@H](CO)[C@@H](O)[C@H](O)[C@H]2O)ccc1O [Isorhamnetin-3-O-glucoside]
Cross BBB potential ([1]; compound within RSFE extract): -
Log P [2, 4]: 0.7

Compound: CC(C)c1cc2c(c(O)c1O)[C@@]13CCCC(C)(C)[C@@H]1C[C@@H]2OC3=O [Carnosol]
Papp at 4 h [1, 3]: 50.1 ×10⁻⁶ cm/s
Cross BBB potential ([1]; compound within RSFE extract): +++ (log Pe > −4.5)
Log P [2, 4]: 4.4

Compound: Oc1cccc(O)c1O [Pyrogallol]
Cross BBB potential ([1]; PAMPA): -
Log P [2, 8]: 0.5

Compound: Kalandaigremoside C
Cross BBB potential ([1]; compound within KD extract): -
Log P ([2]; compounds of KD extract): 7.2

Cross BBB potential ([1]; compound within ASFE extract): -
Cross BBB potential [1, 7]: -
Compound: O=C1c2c(O)cc(O)cc2O[C@H](c2ccc(O)cc2)[C@H]1O [Aromadendrin]
Log P [2, 8]: 1.8
Log P ([2]; compounds of ASFE extract): 1.8

Compound: CC(=O)O[C@H]1C[C@H](C)O[C@@H](O[C@H]2CC[C@]3(C=O)[C@H]4[C@H](O)C(=O)[C@]5(C)[C@@H](c6ccc(=O)oc6)CC[C@]5(O)[C@@H]4CC[C@]3(O)C2)[C@H]1O [Kalantuboside A]
Cross BBB potential ([1]; compound within KD extract): -
Log P ([2]; compounds of KD extract): 7.5

Cross BBB potential ([1]; compound within ASFE extract): -
Cross BBB potential [1, 7]: -
Compound: CC(CC(=O)CC(C)C1CC(O)C2(C)C3=C(C(=O)CC12C)C1(C)CCC(O)C(C)(CO)C1CC3)C(=O)O (stereo not shown) [Ganolucidic acid C]
Log P [2, 8]: 3.1
Log P ([2]; compounds of ASFE extract): 3.1

Compound: CC(C)c1cc2c(c(O)c1O)[C@@]13CCCC(C)(C)[C@@H]1[C@H](OC3=O)[C@H]2O [Rosmanol]
Papp at 4 h [1, 3]: 145 ×10⁻⁶ cm/s
Cross BBB potential ([1]; compound within RSFE extract): +++ (log Pe > −4.5)
Log P [2, 4]: 3.4

Compound: C[C@@H]1C(=O)C[C@@H](C(C)(C)O)O[C@@H]2C[C@@]3(C)[C@@H]4CC=C5[C@@H](C=C(O)C(=O)C5(C)C)[C@]4(C)C(=O)C[C@]3(C)[C@@H]12 [Cucurbitacin S]
Cross BBB potential [1, 7]: -
Log P [2, 8]: 3.2
Log P ([2]; compounds of ASFE extract): 3.2

Cross BBB potential ([1]; PAMPA): ++
PAMPA-BBB log Pe (cm s−1) ([1]; PAMPA, 4 h): −4.97 cm s−1
PAMPA-BBB log Pe [1, 9]: −5.05 cm s−1
Compound: CCC(O)C1CC(C)C2(CC(=O)C3(C)C4=C(CCC32C)C2(C)CCC(=O)C(C)(CO)C2CC4)O1 [Triterpene*, (23S,24S)-17,23-Epoxy-24,29-dihydroxy-27-norlanost-8-ene-3,15-dione]
Log P [2, 8]: 3.6
Log P ([2]; compounds of ASFE extract): 3.6

Compound: COc1cc(C=O)cc(OC)c1O [Syringaldehyde]
Papp [1, 6]: 13.5 ×10⁻⁶ cm/s
Log P [2, 8]: 0.1
Log P ([2]; compounds of T33 extract): 1.1

Compound: COc1c(O)cc2oc(-c3ccc(O)c(O)c3)c(O)c(=O)c2c1O [Patuletin]
Cross BBB potential ([1]; compound within KD extract): -
Log P ([2]; compounds of KD extract): 2.1

Compound: CC(C)c1cc2c(c(O)c1O)[C@@]13CCCC(C)(C)[C@@H]1C[C@@H]2OC3 [20-Deoxocarnosol]
Cross BBB potential ([1]; compound within RSFE extract): -
Log P [2, 4]: 4.6

Compound: COc1ccc([C@@H]2CC(=O)c3c(O)cc(O)cc3O2)cc1O [Hesperetin]
Papp at 4 h ([1]; PAMPA, pH 7.4, PAMPA-BBB log Pe): 5.01 ×10⁻⁶ cm/s
Log P [2, 8]: 2.4

Compound: Kalandaigremoside B
Cross BBB potential ([1]; compound within KD extract): -
Log P ([2]; compounds of KD extract): 7.2

Cross BBB potential ([1]; PAMPA): +
PAMPA-BBB log Pe (cm s−1) ([1]; PAMPA, 4 h): −5.55 cm s−1
Compound: CC(C)c1cc2c(c(O)c1O)C(=O)C1CCCC(C)(C)C1CC2 (stereo not shown) [Rosmaridiphenol]
Log P [2, 4]: 5.9

Compound: O.Oc1cc(O)c2c(c1)O[C@H](c1ccc(O)c(O)c1)[C@@H](O)C2 [Catechin]
Cross BBB potential ([1]; PAMPA): -
Log P [2, 8]: 0.4
Log P ([2]; compounds of ASFE extract): 0.4
